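Step 1: Grow cells in 96-well plates. Step 2: Expose to compound for 48 hours at 5 concentrations. Step 3: Interpolate endpoints linearly; if unreached, use highest concentration. GI50 is the concentration that inhibits growth by half.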 Activity calls are given as the source filed them. Cut-off read from the data, not from the text of the source: active = GI50 up to about 1.1 µM and inactive = higher.
What was measured:
Experiment in all cases: DTP human tumour cell line panel, 48 h
[1] = tested on: HCC 2998
[2] = tested on: HOP-62
[3] = tested on: CAKI-1
[4] = tested on: PC-3
[5] = tested on: RPMI-8226
[6] = tested on: SR
[7] = tested on: OVCAR-8
[8] = tested on: NCI-H226
[9] = tested on: SK-MEL-2
[10] = tested on: HCT-116
[11] = tested on: HCT-15
[12] = tested on: K562
[13] = tested on: LOX IMVI
[14] = tested on: NCI/ADR-RES
[15] = tested on: DU-145
[16] = tested on: SN12C
[17] = tested on: SK-MEL-28
[18] = tested on: Malme-3M
[19] = tested on: SNB-75
[20] = tested on: TK-10

| Compound | GI50 [1] | GI50 [2] | GI50 [3] | GI50 [4] | GI50 [5] | GI50 [6] | GI50 [7] | GI50 [8] | GI50 [9] | GI50 [10] | GI50 [11] [µM] | GI50 [12] | GI50 [13] | GI50 [14] | GI50 [15] | GI50 [16] | GI50 [17] | GI50 [18] | GI50 [19] | GI50 [20] |
| --- | --- | --- | --- | --- | --- | --- | --- | --- | --- | --- | --- | --- | --- | --- | --- | --- | --- | --- | --- | --- |
| CC1=C2C(=O)c3ccccc3C(=O)[C@H]2[C@H]2CCO[C@H]2O1 | 19.4 µM (inactive) | 21.3 µM (inactive) | 22.2 µM (inactive) | 30.3 µM (inactive) | 24.4 µM (inactive) | 35.2 µM (inactive) | 20.4 µM (inactive) | 71 µM (inactive) | 18.8 µM (inactive) | 23.8 µM (inactive) | 25.6 | 27.4 µM (inactive) | 22.3 µM (inactive) | 27 µM (inactive) | 22.3 µM (inactive) | 20.9 µM (inactive) | 24.3 µM (inactive) | 19.1 µM (inactive) | 19.8 µM (inactive) | 28.5 µM (inactive) |
| COc1cc(CNC(=O)CCCCCCCCCCSSCCCCCCCCCCC(=O)NCc2ccc(O)c(OC)c2)ccc1O | > 10 µM (inactive) | > 10 µM (inactive) | > 10 µM (inactive) | > 10 µM (inactive) | > 10 µM (inactive) | > 10 µM (inactive) | > 10 µM (inactive) | > 10 µM (inactive) | > 10 µM (inactive) | > 10 µM (inactive) | > 10 | > 10 µM (inactive) | > 10 µM (inactive) | > 10 µM (inactive) | > 10 µM (inactive) | > 10 µM (inactive) | > 10 µM (inactive) | > 10 µM (inactive) | > 10 µM (inactive) | > 10 µM (inactive) |
| C[N+]12C=CC=C1C(N1CCCC1)c1scc(-c3ccc(Br)cc3)c12 (stereo not given) | 12.4 µM (inactive) | 14.8 µM (inactive) | > 62.5 µM (inactive) | 21 µM (inactive) | 3.01 µM (inactive) | 4.81 µM (inactive) | 4.11 µM (inactive) | 3.15 µM (inactive) | 6.18 µM (inactive) | 30.9 µM (inactive) | > 90.8 | 6.7 µM (inactive) | 25.5 µM (inactive) | > 100 µM (inactive) | 33.7 µM (inactive) | 3.02 µM (inactive) | 19 µM (inactive) | 9.4 µM (inactive) | 3.1 µM (inactive) | 91.2 µM (inactive) |
| CNC1Cc2c[nH]c3cccc(c23)C12C=C(C)C(=O)O2 (stereo not given) | > 100 µM (inactive) | > 100 µM (inactive) | > 100 µM (inactive) | > 100 µM (inactive) | > 100 µM (inactive) | 88.5 µM (inactive) | > 100 µM (inactive) | > 100 µM (inactive) | > 100 µM (inactive) | > 100 µM (inactive) | > 100 | > 100 µM (inactive) | > 100 µM (inactive) | > 100 µM (inactive) | > 100 µM (inactive) | > 100 µM (inactive) | > 100 µM (inactive) | > 100 µM (inactive) | > 100 µM (inactive) | > 100 µM (inactive) |
| COc1ccc2nc3ccccc3c(NCCCCCCN(CCCl)CCCl)c2c1 | 0.226 µM (active) | 0.212 µM (active) | 0.0353 µM (active) | 0.0514 µM (active) | 0.0122 µM (active) | 0.0115 µM (active) | 0.0627 µM (active) | 0.25 µM (active) | 0.297 µM (active) | 0.0299 µM (active) | 0.0577 | 0.019 µM (active) | 0.0199 µM (active) | 0.0883 µM (active) | 0.0817 µM (active) | 0.0348 µM (active) | 1.06 µM (active) | 0.537 µM (active) | 0.108 µM (active) | 1.04 µM (active) |
| CSC(=S)Nc1cccc(C)n1 | > 100 µM (inactive) | > 100 µM (inactive) | > 100 µM (inactive) | > 100 µM (inactive) | > 100 µM (inactive) | > 100 µM (inactive) | > 100 µM (inactive) | > 100 µM (inactive) | > 100 µM (inactive) | > 100 µM (inactive) | > 100 | > 100 µM (inactive) | > 100 µM (inactive) | > 100 µM (inactive) | > 100 µM (inactive) | > 100 µM (inactive) | > 100 µM (inactive) | > 100 µM (inactive) | > 100 µM (inactive) | > 100 µM (inactive) |
| CCC1(CC)C(=O)N(C(=O)c2ccc(C)cc2)N(C(=O)c2ccc(C)cc2)C1=O | > 75 µM (inactive) | 65.6 µM (inactive) | 52 µM (inactive) | 59.6 µM (inactive) | 35.4 µM (inactive) | 26.2 µM (inactive) | > 75 µM (inactive) | > 75 µM (inactive) | > 75 µM (inactive) | 32.2 µM (inactive) | 32 | 40 µM (inactive) | 33.2 µM (inactive) | 34.2 µM (inactive) | > 75 µM (inactive) | 54.2 µM (inactive) | > 75 µM (inactive) | 14.4 µM (inactive) | 14.4 µM (inactive) | 73.1 µM (inactive) |

Reference: ChEMBL document CHEMBL1201862, “PubChem BioAssay data set” (2004)
